# Measured values reported in patent US9593146B2, “CD44v6-derived peptides for treating metastasizing cancer” (AMCURE GMBH, priority 2012, dated 2017).
# Residues, ends and D or L forms follow the SMILES beside them. No end group written: not given here. *: point of attachment. PEG2000 = polyethylene glycol with a molecular weight of 2000 Da; DOTA = O=C(O)CN1CCN(CC(=O)O)CCN(CC(=O)*)CCN(CC(=O)O)CC1; Myristoyl = CCCCCCCCCCCCCC(=O)*
# Key:
# L3.6pl cells = experiment: Human orthotopic model of pancreatic cancer, L3.6pl cells in nude mice; type: in vivo; details: for metastatic spreading to the liver (side-by-side comparison): 20 μg per injection three times per week for 3 weeks (FIG. 24); for reduction of tumor size, ranking (side-by-side comparison): 20 μg per injection three times per week for 3 weeks (FIG. 23A); for variability in the individual tumor size within the group: 20 μg per injection three times per week for 3 weeks (FIG. 23B); for tumor growth compared to the control peptide (side-by-side comparison): 20 μg per injection three times per week for 3 weeks, 5 animals per group
# Protocol: In the case of the human orthotopic model, L3.6pl pancreatic carcinoma cells (passage 24-26) were suspended in Hank's balanced salt solution (Invitrogen, Karlsruhe, Germany) after trypsinization. The cells were injected orthotopically in the pancreas of male nude mice as described (Bruns C J et al. (1999) Neoplasia 1(1):50-62). Two groups of 15 mice each were injected i.p. 7 days later with either the human v6 peptide respectively rat control peptide (20 μg). For all experiments described and depicted herein either the rat 14mer control peptide or the human 14mer peptide were used. All experiments were then repeated with the rat 5mer control peptide or the human 5mer peptide (N-R-W-H-E, SEQ ID NO: 2). […] The injection was repeated three times per week for 21 days. Two days after the last treatment the animals were killed. […]
# A comparison of different CD44v6 peptide derivatives was performed in animals bearing a orthotopic L3.6pl tumor. 10 groups of 5 animals each received a dose of 20 μg peptide per injection three times per week for 3 weeks with the compounds listed in Table 4. Three weeks after starting the treatment the animals were sacrificed and analyzed for macroscopic metastases and tumor volume.
# HT29 cells = experiment: HGF induced scattering of HT29 cells; type: cell-based, human
# Protocol: FIG. 17: The human CD44 v6 specific peptides block HGF induced cell scattering and invasion into matrigel. Scattering of HT29 cells was determined in 24-well plates. First, 4.5×10^4 cells were seeded at 37° C.; after 24 h the cells were serum starved for additional 24 h. the cells were either left untreated (control) or later treated with HGF (50 ng/ml) for 24 h. Where indicated the cells were treated with the v6 specific peptide (human v6 5mer, 10mer, 14mer) or control peptide prior to induction with HGF for 30 min. Pictures were made using phase contrast microscopy. Magnification 40×.
# A scatter assay was performed additionally. HT29 colon cancer cells were grown in medium containing 10% FCS. One day after seeding, the cells were starved. On the third day, the cells were induced with HGF (10 ng/ml) and pre-incubated with either no peptide, ctrl-peptides (SEQ ID No.: 15), non-pegylated v6-peptides (SEQ ID No.: 11) or the pegylated peptides, namely PEG-rat control peptide and PEG-rat CD44v6 peptide.
# Scattering of HT29 cells was determined in 24-well plates. First, 4×10^5 cells were seeded at 37° C.; the cells were either left untreated or 48 h later treated with HGF (50 ng/ml) for 24 h or with PEGylated or non-PEGylated peptides (100 ng/ml) prior to HGF induction for 30 min.
# Met and ERK = experiment: HGF induced activation of Met and Erk in BSp73ASs6 cells (Western blot); type: cell-based, rat; details: ASs6 cells, peptides with 2000 dalton PEG-chain, 150 nM 10 min before HGF 10 ng/ml (FIG. 10)
# Protocol: Serum-starved cells (24 hours) were induced with the growth factor HGF (10 ng/mL) at 37° C. for 5 minutes. Where indicated, the cells were treated with peptides (100 ng/ml) prior to induction at 37° C. for 10 minutes (100 ng/mL CD44v6 peptide or control peptide). Following the induction with HGF, cells were washed with ice-cold phosphate-buffered saline (PBS). To detect activated Met and Erk, cells were lysed in sodium dodecyl sulfate (SDS)-sample buffer containing 100 mM dithiothreitol (DTT), boiled and subjected to western blot analysis using antibodies against phospho-Met and ERK. The loading controls were performed on the same blot after stripping (62.5 mM Tris, pH 6.8, 2% SDS, 0.8% DTT) by probing with the Met respectively ERK antibody. Blots were stained using the enhanced chemiluminescence system (Thermo Fisher Scientific, Schwerte, Germany). Bands in western blot analysis were quantified with the program Image J (National Institutes of Health).
# Rat pancreatic cancer cells BSp73ASs6 (also designated Ass6) were incubated for 10 min at 37° C. with either ctrl-peptides (SEQ ID No.: 15), non-pegylated v6-peptides (SEQ ID No.: 11) and increasing concentrations of the pegylated peptides, namely PEG-rat control peptide and PEG-rat CD44v6 peptide, before induction with HGF (10 ng/ml; 5 min at 37° C.).
# Activation of ERK and Met was determined by standard SDS and Western Blotting techniques using a phospho-Met and phospho-Erk specific antibody (phospho-Met clone D16 cell signaling, phospho-Erk p42/44 cell signaling)
# ASs6 cells, serum starved for 24 h, were induced with HGF (10 ng/ml) at 37° C. for 5 min. Where indicated, the cells were treated with PEGylated or non-PEGylated peptides before induction at 37° C. for 10 min (150 nM). Cells were washed with phosphate-buffered saline (PBS) and lysed in boiling sodium dodecyl sulfate (SDS)-sample buffer containing 100 mM dithiothreitol (DTT). Subsequently, lysates were subjected to Western blot analysis using antibodies against phosphorylated Mek and Erk (Cell signaling). The Mek and Erk loading control were performed on the same blot, stripped (62.5 mM Tris pH 6.8, 2% SDS, 0.8% DTT) and probed with the Mek and Erk antibodies. Blots were stained using the enhanced chemiluminescence system (Thermo Fisher Scientific).
# BSp73ASs6 cells [1] = experiment: Rat syngeneic model, subcutaneous BSp73ASs6 tumor, metastasis formation; type: in vivo; details: 200 μg per injection, intra-tumoral or intravenously three times a week, start after one week of tumor growth
# Protocol: In the case of the rat syngeneic model, 1×10^6 pancreatic cells (BSp73AS and its transfectants) were subcutaneously injected into the right posterior flank of the animals. Tumors developed for four weeks. During this time period animals injected with BSp73ASs6 cells expressing Met-shRNA or control-shRNA received doxycycline in the drinking water. At the end of the experiment, primary tumors were isolated. Lungs and axillary lymph nodes were analyzed. The tissues were incubated for 24 h in a zinc-fixative (0.5 g calcium acetate, 5.0 g zinc acetate, 5.0 g zinc chloride, in 1 L 0.1 M Tris pH 7.4) and embedded in paraffin for further analysis. In case of peptide or antibody treatment tumors developed for one week before the first treatment. Where indicated, animals received 200 μg of peptide or antibody per injection three times per week for four weeks. Tumor growth was monitored weekly using a caliper. Animals were killed at day 28 or 30 after start of the treatment.
# For histo-morphological analysis paraffin-embedded sections of lungs were stained with hematoxylin and eosin and periodic acid-Schiff (H&E or PAS). Serial sections of the whole tissue blocks were examined by analyzing slices every 20 μm; in each slice, the presence and the extension of the metastatic deposit was assessed, according to the procedure routinely used by pathologists to evaluate the presence of micro-metastases.
# BSp73ASs6 cells [2] = experiment: Apoptosis in established lung metastases (cleaved Caspase-3, cleaved Caspase-8), BSp73ASs6 rat model; type: in vivo; details: injection every second day
# Protocol: 7 μm thick paraffin sections were deparaffinized and rehydrated. For P-Met staining antigen unmasking was achieved by boiling the slides in 1 mM EDTA pH 8.0 followed by incubation for 15 minutes at a sub-boiling temperature, for CD31 staining the sections were treated with Proteinase K (8 μg/ml) for 10 min at 37° C. For immunofluorescence staining of P-Met, unspecific binding was blocked with 5% goat serum (DAKO, Glostrup, Denmark) (diluted in 1×PBS/0.3% Triton X-100) for 60 minutes. In the case of immunohistochemistry, endogenous peroxidases were at first blocked with 3% H2O2 in PBS followed by incubation with biotin blocking system (Dako, Glostrup, Denmark) and then unspecific binding was inhibited by incubation with 5% FCS in PBS. The sections were incubated with the P-Met antibody (D26, dilution 1:50 in 1×PBS/1% BSA/0.3% Triton X-100), Met antibody (C-28, dilution 1:50), GFP antibody (sc-101525, dilution 1:50) or CD31 antibody (5 μg/ml) over night or VFF18 (5 μg/ml) o/n at 4° C. After washing in PBS the sections were incubated with Alexa Fluor R 546 goat anti-rabbit (in case of immunofluorescence P-Met and Met staining, dilution 1:500) or a biotinylated secondary antibody (for immunohistochemical stainings rabbit anti-rat antibody for VFF18 and CD31, goat anti-rabbit for P-Met, cleaved Caspase-3 and cleaved Caspase-8 and rabbit anti-mouse for GFP, dilution 1:500) for 45 minutes. For DAB (3,3′-diaminobenzidine) staining the sections were treated with a streptavidin-peroxidase conjugate (Dako, Glostrup, Denmark) and developed with DAB substrate system (3,3′-diaminobenzidine; Biozol, Eching, Germany). For immunofluorescence DAPI was used for nuclear staining.
# One hypothesis for the disappearance of metastases is that the peptides induce apoptosis of CD44v6-expressing metastatic cells in the secondary organs. In order to test this hypothesis, the experiment described above using the BSp73ASs6 cells was repeated. The cells were injected subcutaneously in syngeneic rats and the tumor was allowed to develop for three weeks. After that time the animals were separated in two groups of 10 animals that were injected either with the specific rat CD44v6 peptide or with the control peptide (mouse) every second day. One day following each injection of the peptide, the lungs of one animal were removed and apoptosis was measured using an antibody that detects the cleaved form of Caspase 3. […] Twelve days after injection of the CD44v6 peptide, less apoptosis was observed. […] From these experiments, it is concluded that the CD44v6 peptide induces apoptosis of metastatic cells.
compound,measurement,setting,value
"N=C(N)NCCC[C@H](NC(=O)[C@@H](N)CC(N)=O)C(=O)N[C@@H](Cc1c[nH]c2ccccc12)C(=O)N[C@@H](Cc1c[nH]cn1)C(=O)N[C@@H](CCC(=O)O)C(=O)O [human 5mer, NRWHE] (H-NRWHE-OH; N-terminus and C-terminus assumed)",side effects in the animals,L3.6pl cells; 200 μg per injection i.p. three times per week,did not lead to side effects in the animals
DOTA-KEQWFGNRWHEGYR ({DOTA}-KEQWFGNRWHEGYR; not fully specified (residue 14)) [DOTA CD44v6-14 [r^14]],metastatic spreading to the liver (side-by-side comparison),L3.6pl cells,complete inhibition of metastasis
DOTA-cy[KRWHE] [cycl 5 mer],"reduction of tumor size, ranking (side-by-side comparison)",L3.6pl cells,strongest reduction of tumor size
same,variability in the individual tumor size within the group,L3.6pl cells,low variability
same,metastatic spreading to the liver (side-by-side comparison),L3.6pl cells,complete inhibition of metastasis
DOTA-keqwfGNRWHEGyr [DOTA CD44v6-14 [daa7]],metastatic spreading to the liver (side-by-side comparison),L3.6pl cells,decrease of metastatic spreading
Myr-KEQWFGNRWHEGYR (Myristoyl-KEQWFGNRWHEGYR) [Myristoyl-14-mer],tumor growth compared to the control peptide (side-by-side comparison),L3.6pl cells,no inhibitory effect on tumor growth
"Myr-Y-cy[KGNRWHEG] (Myristoyl-YKGNRWHEG; not fully specified (bridges); printed as Myr-Y-cy[KGNRWHEG]; also: cyclic, ring closure not given here) [Myr-Y-cycl 8 mer]",metastatic spreading to the liver (side-by-side comparison),L3.6pl cells,decrease of metastatic spreading
"NAAAG [ctrl-peptides, reference compound]",HGF induced clustering / scattering of HT29 cells (FIG. 11),"HT29 cells; HGF 10 ng/ml, peptide pre-incubation (Example 2)",not control peptides lead to dissociation and migration
PEG840-KEQWFGNRWHEGYR-OH [PEG840 14-mer],metastatic spreading to the liver (side-by-side comparison),L3.6pl cells,decrease of metastatic spreading
same,tumor growth compared to the control peptide (side-by-side comparison),L3.6pl cells,significant reduction in tumor growth
PEG2000-KEQWFGNRWHEGYR-OH [PEG2000 14-mer],"reduction of tumor size, ranking (side-by-side comparison)",L3.6pl cells,strongest reduction of tumor size
same,variability in the individual tumor size within the group,L3.6pl cells,low variability
same,metastatic spreading to the liver (side-by-side comparison),L3.6pl cells,decrease of metastatic spreading
same,tumor growth compared to the control peptide (side-by-side comparison),L3.6pl cells,significant reduction in tumor growth
"PEG-NAAAG [PEG-control peptide, pegylated control peptide, 3 essential aa replaced by alanines, reference compound]",HGF induced Met-phosphorylation and Erk signaling,Met and ERK,showed no effect
same,HGF induced scattering of HT29 cells,"HT29 cells; PEGylated peptides 100 ng/ml prior to HGF 50 ng/ml (Example 5, FIG. 11)",not with PEGylated control peptides
"cy[KGNRWHEG] (not fully specified (bridges); printed as cy[KGNRWHEG]; also: cyclic, ring closure not given here) [cycl. 8 mer]","reduction of tumor size, ranking (side-by-side comparison)",L3.6pl cells,strongest reduction of tumor size
same,variability in the individual tumor size within the group,L3.6pl cells,low variability
same,metastatic spreading to the liver (side-by-side comparison),L3.6pl cells,complete inhibition of metastasis
same,metastatic spreading at 2 and 20 μg per injection,"L3.6pl cells; 2 and 20 μg per injection, three times per week",blocked metastatic spreading
same,size / growth of the primary tumor (dose reduction study),"L3.6pl cells; three injections per week for 3 weeks, compared to control groups (FIG. 22C)",drastic effect on growth of the primary tumor
mouse control peptides: mouse CD44v6 peptide used as control in the rat syngeneic model (WFQNGWQGKNP) [reference compound],"metastasis (axillary lymph nodes, lungs)",BSp73ASs6 cells [1],numerous metastases were detected in the lungs
same,apoptosis (cleaved Caspase 3) in lung metastases,BSp73ASs6 cells [2],No apoptosis at all was detected
same,lung metastasis at day twenty-two,BSp73ASs6 cells [2],metastatic spreading was evident in the lungs
